Measurements: ChEMBL document CHEMBL4765298, “Substituted oxindol-3-ylidenes as AMP-activated protein kinase (AMPK) inhibitors” (Eur J Med Chem, 2020)
Each block holds one compound with its values, some of them ahead of it. Active and inactive are the calls of the source. No cut-off for these calls is given here.

Experiments:
K562 [1] = assay: Cytotoxicity against human K562 cells assessed as reduction in cell viability incubated for 24 hrs by cell-titer glo assay; assay type: cell-based; conditions: K562, 24 h
K562 [2] = assay: Cytotoxicity against human K562 cells assessed as reduction in cell viability incubated for 72 hrs by MTS assay; assay type: cell-based; conditions: K562, 72 h
[3] = Cytotoxicity against human K562 cells assessed as reduction in cell viability at 50 uM incubated for 24 hrs by celltox-green assay relative to control; assay type: cell-based; conditions: read-out: INH
K562 [4] = assay: Cytotoxicity against human K562 cells assessed as reduction in cell viability incubated for 48 hrs by celltox-green assay; assay type: cell-based; conditions: K562, 48 h
[5] = Cytotoxicity against human K562 cells assessed as reduction in cell viability at 50 uM incubated for 72 hrs by MTS assay relative to control; assay type: cell-based; conditions: read-out: INH
[6] = target: 5'-AMP-activated protein kinase catalytic subunit alpha-1 (Homo sapiens) (UniProt Q13131); assay: Inhibition of wild-type human partial length AMPK alpha1 (M1 to E306 residues) expressed in bacterial expression system at 100 nM by Kinomescan method relative to control
Sequence of 5'-AMP-activated protein kinase catalytic subunit alpha-1 (Homo sapiens) (Q13131 whole entry, looked up, the tested form may be a part): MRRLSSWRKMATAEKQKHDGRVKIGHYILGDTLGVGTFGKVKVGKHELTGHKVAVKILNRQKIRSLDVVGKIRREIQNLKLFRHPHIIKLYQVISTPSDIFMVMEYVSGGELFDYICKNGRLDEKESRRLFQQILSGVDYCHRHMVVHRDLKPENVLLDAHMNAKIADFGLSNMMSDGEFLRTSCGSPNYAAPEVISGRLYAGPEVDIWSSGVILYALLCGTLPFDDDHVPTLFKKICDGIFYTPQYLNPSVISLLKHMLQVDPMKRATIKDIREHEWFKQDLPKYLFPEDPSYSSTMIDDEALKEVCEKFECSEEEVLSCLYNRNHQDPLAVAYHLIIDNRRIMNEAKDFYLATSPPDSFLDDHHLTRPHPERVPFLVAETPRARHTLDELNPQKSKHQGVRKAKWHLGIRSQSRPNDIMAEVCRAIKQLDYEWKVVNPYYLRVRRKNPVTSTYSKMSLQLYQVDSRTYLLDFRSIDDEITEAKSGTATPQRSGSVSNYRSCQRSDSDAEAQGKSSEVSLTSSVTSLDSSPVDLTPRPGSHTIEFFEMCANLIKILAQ

K562 [7] = assay: Inhibition of AMPK in human K562 cells assessed as p-ACC (Ser79) level at 50 uM in glucose free medium and in presence of 2-Deoxy-D-glucose measured after 3 hrs by ELISA; assay type: cell-based
[8] = target: Vascular endothelial growth factor receptor 2 (Homo sapiens) (UniProt P35968); conditions: dose 100.0 nM
Sequence of Vascular endothelial growth factor receptor 2 (Homo sapiens) (P35968 whole entry): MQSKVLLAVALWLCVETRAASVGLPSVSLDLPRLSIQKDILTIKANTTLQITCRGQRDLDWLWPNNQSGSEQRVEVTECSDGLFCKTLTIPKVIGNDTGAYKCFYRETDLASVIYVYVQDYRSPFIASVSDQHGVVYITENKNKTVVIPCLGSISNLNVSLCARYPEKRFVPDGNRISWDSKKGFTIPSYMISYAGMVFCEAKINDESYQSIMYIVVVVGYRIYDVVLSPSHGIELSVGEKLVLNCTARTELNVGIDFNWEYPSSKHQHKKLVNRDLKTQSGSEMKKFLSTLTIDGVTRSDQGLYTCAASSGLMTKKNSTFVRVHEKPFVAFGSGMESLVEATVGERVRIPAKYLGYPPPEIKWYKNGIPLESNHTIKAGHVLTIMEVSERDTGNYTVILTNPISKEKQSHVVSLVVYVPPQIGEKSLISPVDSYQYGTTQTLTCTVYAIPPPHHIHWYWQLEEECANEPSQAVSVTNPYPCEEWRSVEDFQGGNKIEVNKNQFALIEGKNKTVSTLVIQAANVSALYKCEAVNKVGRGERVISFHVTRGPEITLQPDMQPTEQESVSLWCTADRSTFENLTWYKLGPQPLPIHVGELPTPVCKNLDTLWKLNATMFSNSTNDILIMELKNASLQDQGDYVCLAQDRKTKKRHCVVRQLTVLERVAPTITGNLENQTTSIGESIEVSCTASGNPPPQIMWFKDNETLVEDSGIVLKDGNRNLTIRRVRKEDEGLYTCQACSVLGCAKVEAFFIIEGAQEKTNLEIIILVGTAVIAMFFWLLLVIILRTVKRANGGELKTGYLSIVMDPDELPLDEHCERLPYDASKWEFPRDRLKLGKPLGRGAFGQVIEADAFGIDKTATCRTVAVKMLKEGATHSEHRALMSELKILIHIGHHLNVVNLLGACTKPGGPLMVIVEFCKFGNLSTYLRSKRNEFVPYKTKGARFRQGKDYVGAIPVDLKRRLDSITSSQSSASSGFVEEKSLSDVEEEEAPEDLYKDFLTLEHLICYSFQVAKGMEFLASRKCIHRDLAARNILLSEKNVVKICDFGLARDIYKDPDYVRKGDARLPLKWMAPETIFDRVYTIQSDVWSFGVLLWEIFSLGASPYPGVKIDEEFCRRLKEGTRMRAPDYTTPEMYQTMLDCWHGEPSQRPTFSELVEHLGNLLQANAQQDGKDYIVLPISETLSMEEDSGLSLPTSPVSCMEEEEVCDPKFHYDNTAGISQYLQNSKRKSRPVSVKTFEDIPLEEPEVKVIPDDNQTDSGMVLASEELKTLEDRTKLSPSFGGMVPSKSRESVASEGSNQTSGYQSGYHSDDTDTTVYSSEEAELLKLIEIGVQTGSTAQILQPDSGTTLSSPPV
Description: Inhibition of wild-type human partial length VEGFR2 (R787 to P1253 residues) expressed in mammalian expression system at 100 nM by Kinomescan method relative to control

K562 [9] = assay: Inhibition of AMPK in human K562 cells assessed as p-ACC (Ser79) level at 5 uM in glucose free medium and in presence of 2-Deoxy-D-glucose measured after 3 hrs by ELISA relative to control; assay type: cell-based
[10] = target: Mast/stem cell growth factor receptor Kit (Homo sapiens) (UniProt P10721); assay: Inhibition of wild-type human partial length autoinhibited KIT (Y545 to D952 residues) expressed in mammalian expression system at 100 nM by Kinomescan method relative to control
Sequence of Mast/stem cell growth factor receptor Kit (Homo sapiens) (P10721 whole entry, the tested form may be a part): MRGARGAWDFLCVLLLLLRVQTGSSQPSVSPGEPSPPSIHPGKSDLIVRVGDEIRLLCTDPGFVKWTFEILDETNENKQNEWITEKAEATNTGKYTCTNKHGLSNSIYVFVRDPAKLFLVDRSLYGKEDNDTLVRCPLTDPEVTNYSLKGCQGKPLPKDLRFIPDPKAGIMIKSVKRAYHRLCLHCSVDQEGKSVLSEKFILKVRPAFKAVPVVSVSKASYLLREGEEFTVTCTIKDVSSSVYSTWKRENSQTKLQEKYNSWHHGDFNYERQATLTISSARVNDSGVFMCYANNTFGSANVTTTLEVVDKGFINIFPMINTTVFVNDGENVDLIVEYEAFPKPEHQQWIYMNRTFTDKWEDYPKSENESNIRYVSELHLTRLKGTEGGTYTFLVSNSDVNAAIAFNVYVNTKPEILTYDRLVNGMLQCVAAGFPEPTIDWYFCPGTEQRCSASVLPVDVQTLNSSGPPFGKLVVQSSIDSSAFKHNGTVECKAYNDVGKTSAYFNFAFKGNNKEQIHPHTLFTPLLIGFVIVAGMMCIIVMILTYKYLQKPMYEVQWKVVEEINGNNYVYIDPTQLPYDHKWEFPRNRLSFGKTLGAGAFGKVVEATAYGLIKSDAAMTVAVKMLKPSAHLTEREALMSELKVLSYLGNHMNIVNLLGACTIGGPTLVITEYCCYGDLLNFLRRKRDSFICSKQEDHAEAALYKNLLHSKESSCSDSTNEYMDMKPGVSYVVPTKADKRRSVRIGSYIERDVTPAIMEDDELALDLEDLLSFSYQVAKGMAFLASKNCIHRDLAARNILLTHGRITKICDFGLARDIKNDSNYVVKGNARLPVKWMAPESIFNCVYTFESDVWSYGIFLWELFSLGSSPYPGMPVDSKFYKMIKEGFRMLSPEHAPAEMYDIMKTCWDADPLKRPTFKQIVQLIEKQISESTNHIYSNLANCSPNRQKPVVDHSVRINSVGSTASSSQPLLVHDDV

[11] = target: Tyrosine-protein kinase JAK1 (Homo sapiens) (UniProt P23458); assay: Inhibition of wild-type human partial length JAK1 JH2 pseudokinase domain (R537 to D855 residues) expressed in mammalian expression system at 100 nM by Kinomescan method relative to control
[12] = target: Macrophage colony-stimulating factor 1 receptor (Homo sapiens) (UniProt P07333); assay: Inhibition of wild-type human partial length CSF1R (I564 to S939 residues) expressed in bacterial expression system at 100 nM by Kinomescan method relative to control
Sequence of Macrophage colony-stimulating factor 1 receptor (Homo sapiens) (P07333 whole entry, the tested form may be a part): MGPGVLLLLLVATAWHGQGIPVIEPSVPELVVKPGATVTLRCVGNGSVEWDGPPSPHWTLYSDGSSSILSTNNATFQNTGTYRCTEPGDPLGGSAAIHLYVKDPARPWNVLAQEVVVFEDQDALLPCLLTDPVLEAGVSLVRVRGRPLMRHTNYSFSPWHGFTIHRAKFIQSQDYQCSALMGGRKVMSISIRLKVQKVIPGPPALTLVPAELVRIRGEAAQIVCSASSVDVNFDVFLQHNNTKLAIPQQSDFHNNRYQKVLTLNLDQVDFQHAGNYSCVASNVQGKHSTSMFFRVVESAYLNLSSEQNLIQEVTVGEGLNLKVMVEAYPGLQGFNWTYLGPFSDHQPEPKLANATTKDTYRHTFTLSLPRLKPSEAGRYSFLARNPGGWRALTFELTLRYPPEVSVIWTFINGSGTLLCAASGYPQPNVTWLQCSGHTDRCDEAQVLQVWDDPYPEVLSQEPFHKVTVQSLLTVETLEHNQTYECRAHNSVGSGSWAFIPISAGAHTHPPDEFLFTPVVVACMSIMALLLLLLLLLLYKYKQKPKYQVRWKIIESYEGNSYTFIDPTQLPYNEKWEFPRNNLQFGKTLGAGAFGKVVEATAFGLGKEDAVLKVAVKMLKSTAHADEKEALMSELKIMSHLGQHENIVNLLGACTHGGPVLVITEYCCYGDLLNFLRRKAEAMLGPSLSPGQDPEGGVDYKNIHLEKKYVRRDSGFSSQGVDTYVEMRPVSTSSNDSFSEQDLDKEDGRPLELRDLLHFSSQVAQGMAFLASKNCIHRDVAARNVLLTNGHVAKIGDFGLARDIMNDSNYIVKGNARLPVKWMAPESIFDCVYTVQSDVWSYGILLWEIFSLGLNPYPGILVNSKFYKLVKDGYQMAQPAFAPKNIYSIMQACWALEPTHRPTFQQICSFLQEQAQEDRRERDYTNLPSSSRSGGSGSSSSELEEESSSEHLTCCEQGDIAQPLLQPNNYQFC

[13] = target: Vascular endothelial growth factor receptor 1 (Homo sapiens) (UniProt P17948); assay: Inhibition of wild-type human partial length FLT1 (R781 to F1239 residues) expressed in bacterial expression system at 100 nM by Kinomescan method relative to control
[14] = target: 5'-AMP-activated protein kinase catalytic subunit alpha-2 (Homo sapiens) (UniProt P54646); assay: Inhibition of wild-type human partial length AMPK alpha2 (M1 to E306 residues) expressed in bacterial expression system at 100 nM by Kinomescan method relative to control
Sequence of 5'-AMP-activated protein kinase catalytic subunit alpha-2 (Homo sapiens) (P54646 whole entry, looked up, the tested form may be a part): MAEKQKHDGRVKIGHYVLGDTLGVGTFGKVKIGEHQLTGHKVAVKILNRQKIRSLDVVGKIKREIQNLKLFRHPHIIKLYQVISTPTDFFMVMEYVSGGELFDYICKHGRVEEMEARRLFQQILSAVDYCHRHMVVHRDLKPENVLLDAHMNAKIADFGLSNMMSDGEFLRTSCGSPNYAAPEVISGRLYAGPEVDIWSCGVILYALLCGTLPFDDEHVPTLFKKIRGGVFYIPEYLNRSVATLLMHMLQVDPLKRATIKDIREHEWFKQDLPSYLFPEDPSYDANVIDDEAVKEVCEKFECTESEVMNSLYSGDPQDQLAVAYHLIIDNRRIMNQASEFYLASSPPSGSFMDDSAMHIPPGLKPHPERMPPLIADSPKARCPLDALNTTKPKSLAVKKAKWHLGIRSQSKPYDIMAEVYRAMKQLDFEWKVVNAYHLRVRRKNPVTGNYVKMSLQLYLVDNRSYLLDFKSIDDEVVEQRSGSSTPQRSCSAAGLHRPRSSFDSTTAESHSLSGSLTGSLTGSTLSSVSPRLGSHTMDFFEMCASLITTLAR

[15] = Cytotoxicity against human K562 cells assessed as reduction in cell viability at 50 uM incubated for 24 hrs by cell-titer glo assay relative to control; assay type: cell-based; conditions: read-out: INH
[16] = Cytotoxicity against human K562 cells assessed as reduction in cell viability at 1.56 uM incubated for 72 hrs by MTS assay relative to control; assay type: cell-based; conditions: read-out: INH
K562 [17] = assay: Cytotoxicity against human K562 cells assessed as reduction in cell viability incubated for 24 hrs by celltox-green assay; assay type: cell-based; conditions: K562, 24 h
[18] = target: 5'-AMP-activated protein kinase catalytic subunit alpha-2 (Homo sapiens) (UniProt P54646); assay: Inhibition of recombinant human His6-tagged AMPK alpha2 at 10 uM using ULight CRBtide as substrate incubated for 1 hr followed by substrate addition and measured after 1 hr by TR-FRET assay relative to control; conditions: time 2.0 hrs
[19] = Inhibition of recombinant human GST-tagged AMPK alpha1/beta1/gamma1 expressed in African green monkey COS7 cells assessed as reduction in AMPK beta 1 S108 phosphorylation incubated for 10 mins by [gamma 32-P]-ATP based radiometric scintillation counting analysis; assay type: cell-based
[20] = Cytotoxicity against human K562 cells assessed as reduction in cell viability at 50 uM incubated for 48 hrs by celltox-green assay relative to control; assay type: cell-based; conditions: read-out: INH
[21] = target: 5'-AMP-activated protein kinase catalytic subunit alpha-1 (Homo sapiens) (UniProt Q13131); assay: Inhibition of recombinant human His6-tagged AMPK alpha1 at 20 uM using ULight CRBtide as substrate incubated for 1 hr followed by substrate addition and measured after 1 hr by TR-FRET assay relative to control; conditions: time 2.0 hrs
K562 [22] = assay: Inhibition of AMPK in human K562 cells assessed as p-ACC (Ser79) level at 3.125 to […] in glucose free medium and in presence of 2-Deoxy-D-glucose measured after 3 hrs by ELISA; assay type: cell-based; conditions: dose 3.125-12.5 µM
[23] = target: Tyrosine-protein kinase BTK (Homo sapiens) (UniProt Q06187); assay: Inhibition of wild-type human full length BTK (M1 to S659 residues) expressed in mammalian expression system at 100 nM by Kinomescan method relative to control
Sequence of Tyrosine-protein kinase BTK (Homo sapiens) (Q06187 whole entry, the tested form may be a part): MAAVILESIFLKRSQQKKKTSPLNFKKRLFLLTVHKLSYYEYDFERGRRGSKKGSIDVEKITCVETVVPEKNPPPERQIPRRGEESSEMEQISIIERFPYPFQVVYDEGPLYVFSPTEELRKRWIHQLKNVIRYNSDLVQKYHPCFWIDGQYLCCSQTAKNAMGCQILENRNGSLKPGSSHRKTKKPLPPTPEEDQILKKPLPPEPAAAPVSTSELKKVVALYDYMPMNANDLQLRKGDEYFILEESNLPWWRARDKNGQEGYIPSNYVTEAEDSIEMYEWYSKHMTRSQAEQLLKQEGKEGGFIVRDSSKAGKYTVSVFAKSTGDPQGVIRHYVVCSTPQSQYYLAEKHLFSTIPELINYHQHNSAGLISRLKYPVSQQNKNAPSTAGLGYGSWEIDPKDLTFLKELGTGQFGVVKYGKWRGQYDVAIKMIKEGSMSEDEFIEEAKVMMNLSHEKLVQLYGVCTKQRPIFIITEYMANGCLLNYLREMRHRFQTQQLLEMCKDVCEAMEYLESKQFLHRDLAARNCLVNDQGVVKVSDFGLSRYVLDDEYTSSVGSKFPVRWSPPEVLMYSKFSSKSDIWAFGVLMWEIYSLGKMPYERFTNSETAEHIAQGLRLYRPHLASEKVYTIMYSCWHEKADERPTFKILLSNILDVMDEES

[24] = target: Macrophage colony-stimulating factor 1 receptor (Homo sapiens) (UniProt P07333); assay: Inhibition of wild-type human partial length autoinhibited CSF1R (Y538 to S939 residues) expressed in mammalian expression system at 100 nM by Kinomescan method relative to control

SMILES: CCN(CC)CCCNC(=O)c1c(C)[nH]c(/C=C2\C(=O)Nc3ccc(F)cc32)c1C
EC50 (K562 [1]): 18 µM
EC50 (K562 [2]): 13.5 µM
cytotoxicity at 24 h, 50 µM [3]: 63%

SMILES: CCN(CC)CCNC(=O)c1c(C)[nH]c(/C=C2\C(=O)Nc3ccc(C#N)cc32)c1C
EC50 (K562 [1]): 19.9 µM
EC50 (K562 [4]): 13.6 µM
cytotoxicity at 72 h, 50 µM [5]: 98%
cytotoxicity at 24 h, 50 µM [3]: 75%

SMILES: CCN(CC)CCNC(=O)c1c(C)[nH]c(/C=C2\C(=O)Nc3ccc(CCN=[N+]=[N-])cc32)c1C
EC50 (K562 [1]): 4.86 µM
EC50 (K562 [2]): 3.83 µM
EC50 (K562 [4]): 4.81 µM
cytotoxicity at 24 h, 50 µM [3]: 90%

SMILES: CCN(CC)CCNC(=O)c1c(C)[nH]c(/C=C2\C(=O)Nc3ccc(CCO)cc32)c1C
inhibition [6]: 49%
inhibition (K562 [7]): Active
inhibition [8]: 55%
inhibition (K562 [9]): 23.7%
inhibition [10]: 28%
inhibition [11]: 54%
inhibition [12]: 24%
inhibition [13]: 42%
inhibition [14]: 35%

SMILES: Cc1[nH]c(/C=C2\C(=O)Nc3ccc(F)cc32)c(C)c1C(=O)NCCN(C)C
cytotoxicity at 24 h, 50 µM [15]: 98%
EC50 (K562 [2]): 12.6 µM
cytotoxicity at 24 h, 50 µM [3]: 70%

SMILES: CCN(CC)CCNC(=O)c1c(C)[nH]c(/C=C2\C(=O)Nc3cc(Cl)ccc32)c1C
cytotoxicity at 72 h, 1.56 µM [16]: 65%
EC50 (K562 [1]): 3.83 µM
EC50 (K562 [4]): 4.18 µM
EC50 (K562 [17]): 5.24 µM

inhibition [18]: 69%
SMILES: CCN(CC)CCNC(=O)c1c(C)[nH]c(/C=C2\C(=O)Nc3cc(C(C)C)ccc32)c1C

SMILES: CCNCCNC(=O)c1c(C)[nH]c(/C=C2\C(=O)Nc3ccc(F)cc32)c1C
EC50 (K562 [1]): 15.5 µM
EC50 (K562 [2]): 13.6 µM
EC50 (K562 [4]): 11.9 µM
EC50 (K562 [17]): 12.9 µM

IC50 [19]: 0.4 µM
SMILES: CNC(=O)c1ccccc1Oc1nc(Nc2cc(OC)c(OC)c(OC)c2)ncc1Br

inhibition [18]: 88%
SMILES: CCN(CC)CCNC(=O)c1c(C)[nH]c(/C=C2\C(=O)Nc3cc(C)ccc32)c1C

SMILES: CCN(CC)CCNC(=O)c1c(C)[nH]c(/C=C2\C(=O)Nc3ccc(CCNC(C)=O)cc32)c1C
cytotoxicity at 48 h, 50 µM [20]: 42%
cytotoxicity at 24 h, 50 µM [15]: 98%
cytotoxicity at 72 h, 50 µM [5]: 64%
cytotoxicity at 24 h, 50 µM [3]: 5%

SMILES: CCN(CC)CCNC(=O)c1c(C)[nH]c(/C=C2\C(=O)Nc3ccc(CCC#N)cc32)c1C
inhibition (K562 [9]): 34.1%
EC50 (K562 [1]): 17.8 µM
EC50 (K562 [2]): 14.8 µM
EC50 (K562 [4]): 13.6 µM
cytotoxicity at 24 h, 50 µM [3]: 64%

inhibition [18]: 48%
inhibition [21]: 30%
SMILES: CCCNC(=O)c1c(C)[nH]c(/C=C2\C(=O)Nc3ccc(F)cc32)c1C

inhibition [18]: 85%
inhibition [21]: 78%
SMILES: Cc1[nH]c(/C=C2\C(=O)Nc3ccc(F)cc32)c(C)c1C(=O)O

SMILES: CCN(CC)CCNC(=O)c1c(C)[nH]c(/C=C2\C(=O)Nc3cc(F)ccc32)c1C
cytotoxicity at 24 h, 50 µM [15]: 98%
EC50 (K562 [2]): 2.85 µM
EC50 (K562 [4]): 7.15 µM
cytotoxicity at 24 h, 50 µM [3]: 61%

inhibition [18]: 90%
inhibition [21]: 70%
SMILES: CCc1ccc2c(c1)NC(=O)/C2=C\c1[nH]c(C)c(C(=O)NCCN(CC)CC)c1C

inhibition [21]: 89%
SMILES: CCN(CC)CCNC(=O)c1c(C)[nH]c(/C=C2\C(=O)Nc3cc(Br)ccc32)c1C

inhibition [18]: 17%
inhibition [21]: 40%
SMILES: CCN(CC)CCNC(=O)c1c(C)[nH]c(/C=C2\C(=O)N(C)c3ccc(F)cc32)c1C
EC50 (K562 [1]): 11.8 µM
EC50 (K562 [2]): 6.79 µM
EC50 (K562 [17]): 12.1 µM

inhibition [6]: 29%
inhibition [8]: 19%
inhibition [23]: 0%
inhibition [24]: 14%
inhibition [10]: 0%
inhibition [11]: 41%
inhibition [12]: 18%
inhibition [14]: 64%
SMILES: CCN(CC)CCNC(=O)c1c(C)[nH]c(/C=C2\C(=O)Nc3ccc(CCC(N)=O)cc32)c1C
inhibition (K562 [22]): Active
inhibition (K562 [9]): 29.2%
